Measured values taken from US20250152592A1, “PHARMACEUTICAL COMPOSITION COMPRISING ALLOPURINOL, FEBUXOSTAT OR PHARMACEUTICALLY ACCEPTABLE SALT THEREOF FOR PREVENTION OR TREATMENT OF CHRONIC KIDNEY DISEASE IN SUBJECT HAVING HIGH SERUM URIC ACID CONCENTRATION” (Indream Healthcare Inc., priority 2022, published 2025).

Tested on: patients with gout and a history of major cardiovascular diseases
Assay: eGFR over time by average serum uric acid concentration, analysis of clinical trial data
Assay type: in vivo, human
Conditions: for eGFR Mean (95% CI): febuxostat group
Method: In order to evaluate non-inferiority of febuxostat to allopurinol related to cardiovascular risk, a clinical trial was designed and proceeded.
A multicenter, randomized, double-blind non-inferiority trial was performed. The details of the clinical trial design have been published previously. An independent data and safety monitoring committee with access to unblinded data monitored the clinical trial. The statistical analysis for the data and the safety monitoring committee was performed by an independent statistical group (WebbWrites).
The patients were regarded as having a history of major cardiovascular diseases, if they had myocardial infarction, hospitalization for unstable angina, stroke, hospitalization for transient ischemic attack, peripheral vascular disease, or diabetes mellitus symptoms. All participants provided a prior informed consent form.
The patients were randomly assigned so that they received febuxostat or allopurinol administered once a day in a double-blind manner. The randomization was stratified according to the estimated creatinine clearance at baseline (patient group having an estimated creatinine clearance ≥60 ml per minute vs patient group having an estimated creatinine clearance ≥30 and <60 ml per minute).
The dose of allopurinol was modified according to a kidney function. The patients with the estimated creatinine clearance 60 ml or more per minute i) initially received allopurinol at a dose of 300 mg once a day, and the dose was increased in 100 mg increments monthly until the patient had the serum uric acid concentration of less than 6.0 mg per deciliter or the dosage of allopurinol was 600 mg once a day. The patient having the estimated creatinine clearance of 30 ml or more and less than 60 ml per minute initially received 200 mg of allopurinol, and then the dose was increased in 100 mg increments until the patient either had the serum uric acid concentration of less than 6.0 mg per deciliter or was receiving the allopurinol dose of 400 mg once daily.
The dose of febuxostat was not modified according to the kidney function. The patients who were randomly assigned to receive febuxostat initially received 40 mg once a daily, and continued to receive the same dosage if the serum uric acid concentration was less than 6.0 mg per deciliter after 2 weeks of the treatment. If the serum uric acid concentration was higher than 6.0 mg per deciliter at 2nd week visit, the dose of febuxostat was increased to 80 mg once daily for the remainder of the trial.
During the period, the administration of a double-blind and double-dummy trial medications was guided by an interactive voice-response system which was a procedure to prevent unblinding for the patients whose dose was not adjusted. After completing dose adjustment, the urate level was concealed from the investigators, and the treatment was managed throughout the trial using the interactive voice-response system.
Outpatient visits were conducted according to the following schedule: during screening and randomization, and at 2, 4, 6, 8, 10, 12, and 24 weeks after the randomization, and every 6 months during the subsequent years of the trial. The patients with reduced kidney function or, the patients aged 65 years or older at randomization were visited at 9 and 15 months for monitoring the serum chemical profile. If the patient agreed to be monitored, but would not return for study visit, telephone contact was made, but such method was not preferred or recommended.
In order to confirm the effect of allopurinol and febuxostat on the kidney disease, the data obtained in the clinical trial described above was analyzed.

## Cc1nc(-c2ccc(OCC(C)C)c(C#N)c2)sc1C(=O)O [febuxostat]
Blood glucose ≥126 mg/dl, DBP ≤80 mmHg, SBP ≤130 mmHg, serum uric acid ≥8 mg/dl, or gout history 10 years or more
  prevention or treatment of chronic kidney disease when serum uric acid maintained below 6: effectively prevented or treated
Baseline UA≥ 8, Average UA <6, Baseline
  eGFR Mean (95% CI): 61.87 (60.73-63.01) ml/min/1.73 m^2
Baseline UA≥ 8, Average UA <6, Month 3
  eGFR Mean (95% CI): 62.09 (60.91-63.28) ml/min/1.73 m^2
Baseline UA≥ 8, Average UA <6, Month 18
  eGFR Mean (95% CI): 62.99 (61.62-64.36) ml/min/1.73 m^2
Baseline UA≥ 8, Average UA <6, Month 24
  eGFR Mean (95% CI): 63.15 (61.69-64.61) ml/min/1.73 m^2
Baseline UA≥ 8, Average UA <6, Month 30
  eGFR Mean (95% CI): 63.85 (62.28-65.43) ml/min/1.73 m^2
Baseline UA≥ 8, Average UA <6, Month 36
  eGFR Mean (95% CI): 64.04 (62.38-65.70) ml/min/1.73 m^2
Baseline UA≥ 8, Average UA <6, Month 42
  eGFR Mean (95% CI): 63.75 (61.92-65.59) ml/min/1.73 m^2
Baseline UA≥ 8, Average UA <6, Month 48
  eGFR Mean (95% CI): 65.32 (63.28-67.37) ml/min/1.73 m^2
Baseline UA≥ 8, Average UA <6, Month 54
  eGFR Mean (95% CI): 66.35 (64.11-68.58) ml/min/1.73 m^2
Baseline UA≥ 8, Average UA <6, Month 60
  eGFR Mean (95% CI): 66.48 (63.94-69.02) ml/min/1.73 m^2
Baseline UA≥ 8, Average UA <6, Week 2
  eGFR Mean (95% CI): 62.03 (60.84-63.22) ml/min/1.73 m^2
Baseline UA≥ 8, Average UA ≥6, Baseline
  eGFR Mean (95% CI): 63.17 (61.34-65.00) ml/min/1.73 m^2
Baseline UA≥ 8, Average UA ≥6, Month 3
  eGFR Mean (95% CI): 63.02 (61.13-64.91) ml/min/1.73 m^2
Baseline UA≥ 8, Average UA ≥6, Month 18
  eGFR Mean (95% CI): 61.52 (59.25-63.79) ml/min/1.73 m^2
Baseline UA≥ 8, Average UA ≥6, Month 24
  eGFR Mean (95% CI): 62.08 (59.58-64.57) ml/min/1.73 m^2
Baseline UA≥ 8, Average UA ≥6, Month 30
  eGFR Mean (95% CI): 60.68 (57.82-63.54) ml/min/1.73 m^2
Baseline UA≥ 8, Average UA ≥6, Month 36
  eGFR Mean (95% CI): 61.32 (58.15-64.49) ml/min/1.73 m^2
Baseline UA≥ 8, Average UA ≥6, Month 42
  eGFR Mean (95% CI): 60.90 (57.46-64.34) ml/min/1.73 m^2
Baseline UA≥ 8, Average UA ≥6, Month 48
  eGFR Mean (95% CI): 61.54 (57.81-65.27) ml/min/1.73 m^2
Baseline UA≥ 8, Average UA ≥6, Month 54
  eGFR Mean (95% CI): 62.30 (58.01-66.59) ml/min/1.73 m^2
Baseline UA≥ 8, Average UA ≥6, Month 60
  eGFR Mean (95% CI): 61.06 (55.87-66.24) ml/min/1.73 m^2
Baseline UA≥ 8, Average UA ≥6, Week 2
  eGFR Mean (95% CI): 63.18 (61.22-65.15) ml/min/1.73 m^2
Baseline blood glucose level ≥126, Average UA <6, Baseline
  eGFR Mean (95% CI): 64.23 (62.54-65.93) ml/min/1.73 m^2
Baseline blood glucose level ≥126, Average UA <6, Month 3
  eGFR Mean (95% CI): 63.54 (61.75-65.32) ml/min/1.73 m^2
Baseline blood glucose level ≥126, Average UA <6, Month 6
  eGFR Mean (95% CI): 63.33 (61.52-65.14) ml/min/1.73 m^2
Baseline blood glucose level ≥126, Average UA <6, Month 12
  eGFR Mean (95% CI): 64.32 (62.49-66.15) ml/min/1.73 m^2
Baseline blood glucose level ≥126, Average UA <6, Month 18
  eGFR Mean (95% CI): 63.84 (61.79-65.89) ml/min/1.73 m^2
Baseline blood glucose level ≥126, Average UA <6, Month 24
  eGFR Mean (95% CI): 64.49 (62.28-66.69) ml/min/1.73 m^2
Baseline blood glucose level ≥126, Average UA <6, Month 30
  eGFR Mean (95% CI): 63.64 (61.38-65.91) ml/min/1.73 m^2
Baseline blood glucose level ≥126, Average UA <6, Month 36
  eGFR Mean (95% CI): 64.30 (61.77-66.83) ml/min/1.73 m^2
Baseline blood glucose level ≥126, Average UA <6, Month 42
  eGFR Mean (95% CI): 63.94 (61.12-66.76) ml/min/1.73 m^2
Baseline blood glucose level ≥126, Average UA <6, Month 48
  eGFR Mean (95% CI): 65.35 (62.27-68.43) ml/min/1.73 m^2
Baseline blood glucose level ≥126, Average UA <6, Month 54
  eGFR Mean (95% CI): 66.66 (63.21-70.10) ml/min/1.73 m^2
Baseline blood glucose level ≥126, Average UA <6, Month 60
  eGFR Mean (95% CI): 67.78 (63.68-71.89) ml/min/1.73 m^2
Baseline blood glucose level ≥126, Average UA <6, Week 2
  eGFR Mean (95% CI): 64.06 (62.29-65.83) ml/min/1.73 m^2
Baseline blood glucose level ≥126, Average UA ≥6, Baseline
  eGFR Mean (95% CI): 65.94 (62.79-69.10) ml/min/1.73 m^2
Baseline blood glucose level ≥126, Average UA ≥6, Month 3
  eGFR Mean (95% CI): 64.51 (61.21-67.81) ml/min/1.73 m^2
Baseline blood glucose level ≥126, Average UA ≥6, Month 6
  eGFR Mean (95% CI): 64.04 (60.85-67.23) ml/min/1.73 m^2
Baseline blood glucose level ≥126, Average UA ≥6, Month 12
  eGFR Mean (95% CI): 62.81 (59.35-66.28) ml/min/1.73 m^2
Baseline blood glucose level ≥126, Average UA ≥6, Month 18
  eGFR Mean (95% CI): 62.28 (58.22-66.35) ml/min/1.73 m^2
Baseline blood glucose level ≥126, Average UA ≥6, Month 24
  eGFR Mean (95% CI): 62.44 (58.21-66.68) ml/min/1.73 m^2
Baseline blood glucose level ≥126, Average UA ≥6, Month 30
  eGFR Mean (95% CI): 61.66 (57.17-66.16) ml/min/1.73 m^2
Baseline blood glucose level ≥126, Average UA ≥6, Month 36
  eGFR Mean (95% CI): 62.64 (57.30-67.99) ml/min/1.73 m^2
Baseline blood glucose level ≥126, Average UA ≥6, Month 42
  eGFR Mean (95% CI): 62.33 (56.68-67.99) ml/min/1.73 m^2
Baseline blood glucose level ≥126, Average UA ≥6, Month 48
  eGFR Mean (95% CI): 60.51 (54.59-66.44) ml/min/1.73 m^2
Baseline blood glucose level ≥126, Average UA ≥6, Month 54
  eGFR Mean (95% CI): 60.70 (53.73-67.67) ml/min/1.73 m^2
Baseline blood glucose level ≥126, Average UA ≥6, Month 60
  eGFR Mean (95% CI): 60.00 (50.87-69.14) ml/min/1.73 m^2
Baseline blood glucose level ≥126, Average UA ≥6, Week 2
  eGFR Mean (95% CI): 64.56 (61.25-67.87) ml/min/1.73 m^2
DBP <80, Average UA <6, Baseline
  eGFR Mean (95% CI): 62.24 (61.02-63.45) ml/min/1.73 m^2
DBP <80, Average UA <6, Month 3
  eGFR Mean (95% CI): 61.85 (60.63-63.08) ml/min/1.73 m^2
DBP <80, Average UA <6, Month 6
  eGFR Mean (95% CI): 61.84 (60.56-63.11) ml/min/1.73 m^2
DBP <80, Average UA <6, Month 12
  eGFR Mean (95% CI): 63.06 (61.79-64.33) ml/min/1.73 m^2
